Data reported in ChEMBL document CHEMBL1141238, “Cyclohexyl-linked tricyclic isoxazoles are potent and selective modulators of the multidrug resistance protein (MRP1)” (Bioorg Med Chem Lett, 2005).

Experiments:
[1] = molecular target: T1, Multidrug resistance-associated protein 1 (Homo sapiens, UniProt P33527); assay: Inhibitory activity against MRP1 in HeLa-T5 cells; type: functional, cell-based
[2] = molecular target: T1, Multidrug resistance-associated protein 1; assay: Inhibitory activity against MRP1-mediated LTC4 uptake into membrane vesicles from HeLa-T5 cells expressing MRP1; type: functional, cell-based

T1 sequence (P33527 whole entry): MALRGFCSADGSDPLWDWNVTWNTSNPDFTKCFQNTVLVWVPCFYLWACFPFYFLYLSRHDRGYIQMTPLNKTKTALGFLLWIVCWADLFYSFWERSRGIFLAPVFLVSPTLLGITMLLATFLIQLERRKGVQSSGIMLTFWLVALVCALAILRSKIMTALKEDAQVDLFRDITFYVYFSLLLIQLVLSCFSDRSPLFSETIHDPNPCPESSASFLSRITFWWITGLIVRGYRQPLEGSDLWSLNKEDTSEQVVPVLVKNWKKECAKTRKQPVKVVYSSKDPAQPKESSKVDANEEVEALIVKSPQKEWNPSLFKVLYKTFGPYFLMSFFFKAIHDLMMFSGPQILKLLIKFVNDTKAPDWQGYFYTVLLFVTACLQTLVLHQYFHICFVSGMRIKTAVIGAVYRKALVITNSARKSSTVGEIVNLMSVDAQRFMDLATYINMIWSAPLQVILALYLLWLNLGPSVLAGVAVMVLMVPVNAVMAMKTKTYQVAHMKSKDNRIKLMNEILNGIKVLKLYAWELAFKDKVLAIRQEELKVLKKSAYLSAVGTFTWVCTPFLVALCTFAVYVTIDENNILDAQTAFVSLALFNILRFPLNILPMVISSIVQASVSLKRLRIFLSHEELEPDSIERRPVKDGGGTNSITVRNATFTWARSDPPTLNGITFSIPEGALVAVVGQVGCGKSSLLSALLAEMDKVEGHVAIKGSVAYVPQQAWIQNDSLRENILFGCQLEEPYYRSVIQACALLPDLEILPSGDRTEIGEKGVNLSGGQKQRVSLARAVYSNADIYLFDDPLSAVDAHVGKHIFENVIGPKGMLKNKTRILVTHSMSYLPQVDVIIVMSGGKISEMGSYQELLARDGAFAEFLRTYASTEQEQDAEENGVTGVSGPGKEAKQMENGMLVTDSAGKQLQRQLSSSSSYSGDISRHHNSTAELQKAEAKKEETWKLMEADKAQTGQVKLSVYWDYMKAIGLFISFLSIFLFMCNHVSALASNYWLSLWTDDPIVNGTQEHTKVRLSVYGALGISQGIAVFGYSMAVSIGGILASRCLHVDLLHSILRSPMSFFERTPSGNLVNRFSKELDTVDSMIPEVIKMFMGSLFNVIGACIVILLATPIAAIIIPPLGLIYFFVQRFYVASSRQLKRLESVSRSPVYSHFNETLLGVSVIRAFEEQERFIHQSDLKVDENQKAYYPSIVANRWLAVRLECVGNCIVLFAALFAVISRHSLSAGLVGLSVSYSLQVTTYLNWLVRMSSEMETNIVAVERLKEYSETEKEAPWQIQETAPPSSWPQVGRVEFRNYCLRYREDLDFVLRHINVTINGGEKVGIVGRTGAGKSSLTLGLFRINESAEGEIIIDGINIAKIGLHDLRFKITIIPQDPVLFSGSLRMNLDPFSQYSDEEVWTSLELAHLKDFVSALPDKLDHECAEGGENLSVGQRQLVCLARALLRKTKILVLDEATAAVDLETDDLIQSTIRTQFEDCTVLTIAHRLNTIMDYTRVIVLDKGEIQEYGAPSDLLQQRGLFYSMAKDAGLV

Structure (SMILES)	EC50 [1] [nM]	IC50 [2] [nM]
COc1cc(C(=O)NC[C@H]2CCC[C@H](n3c(=O)c4c(C)onc4c4c(Cl)cccc43)C2)cc(OC)c1OC (racemic)	420	–
COc1cc(C(=O)NC[C@@H]2CCC[C@H](n3c(=O)c4c(C)onc4c4c(Cl)cccc43)C2)cc(OC)c1OC (racemic)	250	270
Cc1onc2c1c(=O)n([C@H]1CCC[C@@H](CNC(=O)c3ccccc3)C1)c1cccc(Cl)c21 (racemic)	180	38
Cc1onc2c1c(=O)n([C@H]1CCC[C@H](CNC(=O)c3ccccc3)C1)c1cccc(Cl)c21 (racemic)	640	1010
